Data: patent US20180002295A1, “Compositions and Methods for Treating Anxiety and Compulsive Behavior” (University of Iowa Research Foundation, priority 2015, published 2018)
“Also recorded” adds a separate entry of the source.

Legend:
SAPAP3-deficient mice [1] = assay: Spray-induced grooming assay (baseline and spray-induced grooming) in SAPAP3-deficient mice; format: in vivo; details: compared with wild type
SAPAP3-deficient mice [2] = details: reference 4; cited from earlier work
[3] = intracerebroventricular infusion into left lateral ventricle for 7 days by osmotic minipump
[4] = intraperitoneal, 10 mg/kg/d, 10 mg/kg/day

| SMILES | basal (baseline) grooming (SAPAP3-deficient mice [1]; [3]) | spray-induced grooming (SAPAP3-deficient mice [1]; [3]) | basal (baseline) grooming (SAPAP3-deficient mice [1]; [4]) | spray-induced grooming (SAPAP3-deficient mice [1]; [4]) | compulsive grooming leading to acquisition of facial lesions (SAPAP3-deficient mice [2]) |
| --- | --- | --- | --- | --- | --- |
| CCOc1ccc2nc(N/C(=N/C(=O)CC)NC(=O)CC)nc(C)c2c1 [P5C6] | normalized | normalized | – | – | – |
| CNCCC(Oc1ccc(C(F)(F)F)cc1)c1ccccc1 (centres unmarked) [fluoxetine] | – | – | restored to wild type levels; also recorded: normalized | restored to wild type levels; also recorded: normalized | ameliorated |
